According to patent US8252798B2, “Purine compounds” (Eli Lilly and Company, priority 2008, dated 2012):
Counter-ions that a name gives are not always drawn.

Assays:
[1] = target: T1, hCB1-CHO membranes (Homo sapiens, UniProt P21554); test: CB1 in vitro functional assay, SPA based GTP-γ-35S binding, agonist mode (whole membrane capture); format: biochemical; conditions: normalized to full agonist methanandamide, read-out: relative EC50 value for CB1
T1 construct: expressed in transfected cells; host or cells: CHO
T1 sequence (P21554 whole entry): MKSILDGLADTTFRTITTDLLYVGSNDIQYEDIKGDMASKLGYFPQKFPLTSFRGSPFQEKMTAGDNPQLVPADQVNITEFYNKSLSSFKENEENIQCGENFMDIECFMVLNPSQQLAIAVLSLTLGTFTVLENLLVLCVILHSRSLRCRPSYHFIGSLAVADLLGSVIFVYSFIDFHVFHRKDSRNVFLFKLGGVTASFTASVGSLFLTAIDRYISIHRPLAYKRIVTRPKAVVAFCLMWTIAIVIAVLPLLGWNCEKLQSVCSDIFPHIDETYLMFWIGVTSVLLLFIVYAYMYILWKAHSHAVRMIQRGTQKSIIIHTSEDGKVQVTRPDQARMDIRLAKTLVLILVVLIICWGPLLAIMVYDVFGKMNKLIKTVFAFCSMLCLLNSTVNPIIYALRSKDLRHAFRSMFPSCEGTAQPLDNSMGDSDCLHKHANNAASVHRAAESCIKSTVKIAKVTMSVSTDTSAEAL
Method: (§1) Exemplified compounds are tested in agonist mode using a SPA based GTP-γ-^35S binding assay. All assay components are prepared in assay buffer made up of 20 mM HEPES, 100 mM NaCl, 5 mM MgCl2, (pH 7.4 at room temperature). Semi-log compound dilutions are done in assay buffer containing BSA (final 0.125%). GTP-γ^35-S binding is measured in a 96 well format using a whole membrane capture technique for the CB1 assay and modifications of an antibody capture technique previously described (DeLapp et al. J Pharmacol Exp Ther 289:946-955, 1999) for the CB2 assay. All incubations are done at room temperature.
hCB1-CHO membranes, GDP (1 uM final), and saponin (10 ug/mL final) are added to assay buffer and homogenized. Diluted compounds, GTP-γ-^35S (500 nM final) and membranes are added to the assay plate and incubated for 30 minutes. Then 1 mg/well Wheatgerm Agglutinin SPA bead is added, and the plates are sealed, vortexed, and incubated for an additional hour. Plates are then centrifuged at 700×g for 10 minutes and counted for 1 minute per well using a scintillation counter.
To analyze data, first subtract background from all wells. Determine percent agonist efficacy by normalizing agonist/inverse agonist dose response data to a full agonist (methanandamide) response. Analyze the data using a 4-parameter logistic reduced fit with Activity Base and XLFit3.

[2] = target: T2, hCB2-Sf9 membranes (Homo sapiens, UniProt P34972); test: CB2 in vitro functional assay, SPA based GTP-γ-35S binding, agonist mode (antibody capture); format: biochemical; conditions: normalized to full agonist methanandamide, read-out: relative EC50 value for CB2
T2 construct: expressed in transfected cells; host or cells: Sf9
T2 sequence (P34972 whole entry): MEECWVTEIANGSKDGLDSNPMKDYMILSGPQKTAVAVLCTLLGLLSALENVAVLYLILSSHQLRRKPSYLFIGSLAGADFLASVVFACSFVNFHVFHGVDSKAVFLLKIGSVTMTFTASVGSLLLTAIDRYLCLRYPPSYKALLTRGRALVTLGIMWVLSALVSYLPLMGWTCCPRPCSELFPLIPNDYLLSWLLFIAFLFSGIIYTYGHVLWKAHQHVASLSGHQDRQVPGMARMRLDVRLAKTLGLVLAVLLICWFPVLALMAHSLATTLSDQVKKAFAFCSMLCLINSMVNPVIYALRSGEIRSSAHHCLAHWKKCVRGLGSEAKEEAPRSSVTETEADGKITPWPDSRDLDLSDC
Method: as §1
hCB2-Sf9 membranes and GDP (1 uM final) are added to assay buffer and homogenized. Diluted compounds and membranes are added to the assay plate and pre-incubated for 15 minutes. This is followed by addition of GTP-γ-^35S (500 nM final) and another 35 minute incubation. Next a mixture containing Nonidet® P40 detergent (0.2% final), anti-Gi antibody (final dilution of 1:362), and 1.25 mg anti-rabbit antibody scintillation proximity assay beads is added. The plates are then sealed, vortexed, and incubated for an additional 2 hours before centrifuging and counting as for CB1.
To analyze data, first subtract background from all wells. Determine percent agonist efficacy by normalizing agonist/inverse agonist dose response data to a full agonist (methanandamide) response. […]

[3] = target: T3, human CB2 receptor (Homo sapiens, UniProt P34972); test: Displacement of 3H-CP55940 from human CB2 receptors; format: binding; conditions: displacement of 3H-CP55940, human CB2 membrane homogenates
T3 construct: expressed in transfected cells
T3 sequence (P34972 whole entry): as above
Method: (§2) The methods of Felder et al. (Mol. Pharmaocol. 48:443-450, 1995) were utilized with minor modifications. Specifically, membrane homogenates from cells stably or transiently expressing the human or rat CB2 receptor were washed by centrifugation and diluted into a 50 mM Tris HCl (pH 7.4), 5 mM MgCl2, 2.5 mM EDTA, and 0.1% BSA buffer. Specific binding of 3H-CP55940 was defined with 1 μM CP55940. The ability of compounds to displace specific 3H-CP55940 binding was tested over a range of concentrations in the Tris, MgCl2, EDTA, BSA buffer in the presence of 1% dimethyl sulfoxide by incubating at room temperature for 90 minutes in a volume of 300 μl. Unifilter 96-well microplates pretreated with 0.5% polyvinylpyrrolidone, 0.1% polysorbate 20 in water were washed three times with cold Tris buffer. The reaction mixture was then transferred to the filter plate immediately before terminating the incubation by rapid filtration and three 200 μl washes with cold Tris buffer. After the filter plates dried, microscint 20 was added to each well, the plate sealed and counted for determination of disintegrations per minute. The displacement curves were graphed and the resulting Ki values determined utilizing Graphpad Prism.

[4] = target: T4, rat CB2 receptor (Rattus norvegicus, UniProt Q9QZN9); test: Displacement of 3H-CP55940 from rat CB2 receptors; format: binding; conditions: displacement of 3H-CP55940, rat CB2 membrane homogenates
T4 construct: expressed in transfected cells
T4 sequence (Q9QZN9 1-360): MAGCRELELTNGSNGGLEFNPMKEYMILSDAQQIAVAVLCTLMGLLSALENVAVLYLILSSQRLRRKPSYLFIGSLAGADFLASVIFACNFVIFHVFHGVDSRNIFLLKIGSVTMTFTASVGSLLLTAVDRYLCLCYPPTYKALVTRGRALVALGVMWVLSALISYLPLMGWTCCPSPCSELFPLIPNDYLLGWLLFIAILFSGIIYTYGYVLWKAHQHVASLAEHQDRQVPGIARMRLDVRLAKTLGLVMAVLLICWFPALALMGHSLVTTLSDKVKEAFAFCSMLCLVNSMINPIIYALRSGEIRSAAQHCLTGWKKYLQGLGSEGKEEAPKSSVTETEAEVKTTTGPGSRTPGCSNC
Method: as §2

[5] = system: male Lewis rats; test: Monoiodoacetate (MIA) model, incapacitance testing of knee pain; format: in vivo; conditions: rat MIA model
Method: For all studies male Lewis rats of approximately 8 weeks of age at the time of MIA injection are used to measure pain in the MIA model. The rats are housed in groups of 2 or 3 per cage and maintained in a constant temperature and on a 12 hour light/12 hour dark cycle. Animals have free access to food and water at all times except during data collection.
In the standard MIA model the right knees of each rat are injected with 0.3 mg MIA in 50 ul of saline and the left knees with 50 ul of saline. Pain is measured at varying times after MIA injection (not normally before 10 day post MIA injection) using incapacitance testing. This measures the difference in hind paw weight bearing between the MIA and saline injected knees, and each measurement is the average of 3 separate measurements each measured over 1 second.
For studies with CB2 agonists rats are randomized into dose groups (n=5 or 6) and then dosed once with the compound under investigation. Dosing is staggered by 15 minutes for each rat and at a predetermined time post-dose (usually 2 hours), pain measured using incapacitance testing. Studies are routinely run with 4 groups, vehicle (1% carboxy methyl cellulose in water plus 0.25% polysorbate 80) and 3 compound groups which can be either single compounds at a single dose or the same compound at 3 doses. […]

Cc1nc(N2CCN3C(=O)CCC3C2)c2nc(-c3ccccc3Cl)n(CC3CCOCC3)c2n1 (single isomer, unassigned) [Example 61, 2-[8-(2-Chloro-phenyl)-2-methyl-9-(tetrahydro-pyran-4-ylmethyl)-9H-purin-6-yl]-hexahydro-pyrrolo[1,2-a]pyrazin-6-one hydrochloride salt]
EC50 [1]: 1950 nM
EC50 [2]: 18 nM

Cc1nc(N2CCN(C)CC2)c2nc(-c3cccnc3C3CC3)n([C@@H]3CCOC3)c2n1 [Example 76, 8-(2-Cyclopropyl-pyridin-3-yl)-2-methyl-6-(4-methyl-piperazin-1-yl)-9-(R)-tetrahydro-furan-3-yl-9H-purine hydrochloride salt]
Ki [3]: 33.9 nM
Ki [4]: 31.3 nM

Cc1nc(N2CCN(C)CC2)c2nc(-c3ccccc3Cl)n([C@@H]3CCOC3)c2n1.Cl [Example 88, 8-(2-Chloro-phenyl)-2-methyl-6-(4-methyl-piperazin-1-yl)-9-(R)-tetrahydro-furan-3-yl-9H-purine hydrochloride salt]
pain versus vehicle (difference in hind paw weight bearing) ([5]; oral dose 0.3 mg/kg): significantly reduce pain versus vehicle
pain versus vehicle (difference in hind paw weight bearing) ([5]; oral dose 1 mg/kg): significantly reduce pain versus vehicle
